This series can be described thus: Distillation efficiency: pretreating solvent left in the solids after pretreatment and distillation. To be noted: pretreat 100° C. 1 hour; distill 100° C. 1 hour, full vacuum; 40% solid loading; FIG. 4. It is filed as physicochemical. Here is the method:
Distillation efficiency is measured using the following procedure: pretreat at 100° C. for 1 hour; distill at 100° C. for 1 hours in full vacuum, 40% solid loading (SL) with ethanolamine, enzyme saccharification (5%, 10%, 20% SL), and 10 mg/g biomass of CTEC/HTEC 9/1 cellulase. Distillation efficiency can be measured by determining the concentration of pretreating solvent in the solids after pretreatment.

The text below walks through data of US20230078811A1, “USE OF DISTILLABLE VOLATILE SALT FOR THE PRETREATMENT OF BIOMASS” (The Regents of the University of California, priority 2020, published 2023).

Regarding `NCCO` [ethanolamine], the “removal of the solvent by distillation” value was “about 98.7%”.
